In the supplement of paper PMC10307832:

Columns and labels:
Assay in all cases: relative viability (nuclei count vs DMSO), 5 days (fraction); higher = more cells survive
AT9283 + Luminespib = compound: O=C(Nc1c[nH]nc1-c1nc2ccc(CN3CCOCC3)cc2[nH]1)NC1CC1 [AT9283] + CCNC(=O)c1noc(-c2cc(C(C)C)c(O)cc2O)c1-c1ccc(CN2CCOCC2)cc1 [Luminespib] (partner 0.01 µM)
Summary of the method: (§1)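 After 5 days of treatment, lung cancer cells in 1536-well plates were fixed and stained in a single step (final 0.05% Triton X-100, 1% formaldehyde, 1 ug/ml Hoechst) and their nuclei counted on 4× images. Treatment had been applied by pin tool the day after seeding as one drug alone or as a fixed anchor-drug dose with five library-drug doses (not always all listed) in √10 steps. Relative viability is the nuclei count of treated wells divided by that of vehicle wells, and values are medians of duplicate plates.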

Erlotinib + Bortezomib = compound: C#Cc1cccc(Nc2ncnc3cc(OCCOC)c(OCCOC)cc23)c1 [Erlotinib] + CC(C)C[C@H](NC(=O)[C@H](Cc1ccccc1)NC(=O)c1cnccn1)B(O)O [Bortezomib] (partner 0.002 µM)
Summary of the method: as §1

Erlotinib + Alpelisib = compound: C#Cc1cccc(Nc2ncnc3cc(OCCOC)c(OCCOC)cc23)c1 [Erlotinib] + Cc1nc(NC(=O)N2CCC[C@H]2C(N)=O)sc1-c1ccnc(C(C)(C)C(F)(F)F)c1 [Alpelisib] (partner 2 µM)
Summary of the method: as §1

AT9283 + Pictilisib = compound: O=C(Nc1c[nH]nc1-c1nc2ccc(CN3CCOCC3)cc2[nH]1)NC1CC1 [AT9283] + CS(=O)(=O)N1CCN(Cc2cc3nc(-c4cccc5[nH]ncc45)nc(N4CCOCC4)c3s2)CC1 [Pictilisib] (partner 1 µM)
Summary of the method: as §1

Erlotinib + AZD7762 = compound: C#Cc1cccc(Nc2ncnc3cc(OCCOC)c(OCCOC)cc23)c1 [Erlotinib] + NC(=O)Nc1cc(-c2cccc(F)c2)sc1C(=O)N[C@H]1CCCNC1 [AZD7762] (partner 0.2 µM)
Summary of the method: as §1

Row | Cell Line | relative viability (AT9283 + Luminespib; first compound 0.003 µM) | relative viability (AT9283 + Luminespib; first compound 0.03 µM) | relative viability (AT9283 + Luminespib; first compound 0.09487 µM) | relative viability (AT9283 + Luminespib; first compound 0.3 µM) | relative viability (Erlotinib + Bortezomib; first compound 0.02 µM) | relative viability (Erlotinib + Bortezomib; first compound 0.2 µM) | relative viability (Erlotinib + Bortezomib; first compound 0.6325 µM) | relative viability (Erlotinib + Bortezomib; first compound 2 µM) | relative viability (Erlotinib + Alpelisib; first compound 0.02 µM) | relative viability (Erlotinib + Alpelisib; first compound 0.2 µM) | relative viability (Erlotinib + Alpelisib; first compound 0.6325 µM) | relative viability (Erlotinib + Alpelisib; first compound 2 µM) | relative viability (AT9283 + Pictilisib; first compound 0.003 µM) | relative viability (AT9283 + Pictilisib; first compound 0.03 µM) | relative viability (AT9283 + Pictilisib; first compound 0.09487 µM) | relative viability (AT9283 + Pictilisib; first compound 0.3 µM) | relative viability (Erlotinib + AZD7762; first compound 0.02 µM) | relative viability (Erlotinib + AZD7762; first compound 0.2 µM) | relative viability (Erlotinib + AZD7762; first compound 0.6325 µM) | relative viability (Erlotinib + AZD7762; first compound 2 µM)
1 | CAL-12T | 0.149 | 0.548 | 0.627 | 0.18 | 0.879 | 0.73 | 0.713 | 0.487 | 1.16 | 0.859 | 0.56 | 0.371 | 0.354 | 0.297 | 0.23 | 0.31 | 0.63 | 0.688 | 0.529 | 0.544
2 | NCI-H1792 | 0.264 | 0.454 | 0.382 | 0.229 | 0.897 | 0.958 | 1.18 | 0.783 |  | 0.595 | 0.77 | 0.49 | 0.215 | 0.334 | 0.0902 | 0.0932 | 0.904 | 0.465 | 0.6 | 0.469
3 | NCI-H596 | 1.04 | 1.08 | 0.819 | 0.725 | 1.01 | 0.993 | 1.09 | 0.93 | 0.444 | 0.456 | 0.492 | 0.376 | 0.391 | 0.415 | 0.412 | 0.373 | 1.04 | 0.954 | 1.05 | 0.87
4 | NCI-H1651 | 0.725 | 0.826 | 0.773 | 0.623 | 0.912 | 0.909 | 0.918 | 0.882 | 1.02 | 0.873 | 1.05 | 0.944 | 0.59 | 0.572 | 0.24 | 0.255 | 0.365 | 0.428 | 0.406 | 0.304
5 | NCI-H460 | 0.0366 | 0.041 | 0.0309 | 0.0299 | 1.09 | 1.12 | 1.52 | 1.09 | 0.585 | 0.415 | 0.492 | 0.399 | 0.305 | 0.302 | 0.0565 | 0.0907 | 0.613 | 0.734 | 0.631 | 0.629
6 | EMC-BAC-2 | 1.21 | 0.358 | 0.318 | 0.289 | 1.09 | 0.972 | 1.05 |  | 0.762 | 0.649 | 0.685 | 0.542 | 0.537 | 0.375 | 0.228 | 0.235 | 1.1 | 1.08 | 1.26 | 1.04
7 | HCC-44 | 1.04 | 1.19 | 0.426 | 0.319 | 0.99 |  | 0.982 | 0.899 | 0.821 | 0.698 | 0.909 | 0.707 | 0.598 | 0.627 | 0.151 | 0.123 | 1.01 | 1.02 | 0.984 | 0.96
8 | PC-3 [JPC-3] | 0.739 | 0.744 | 0.473 | 0.404 | 0.796 | 0.455 | 0.401 | 0.324 | 0.799 | 0.368 | 0.352 | 0.323 | 0.673 | 0.631 | 0.542 | 0.376 | 0.639 | 0.522 | 0.415 | 0.356
9 | LXF-289 | 0.731 | 0.742 | 0.326 | 0.144 | 0.964 | 0.999 | 0.921 | 0.857 | 1.08 | 1 | 0.976 | 0.913 | 0.727 | 0.668 | 0.0746 | 0.0864 | 1.13 | 1.07 | 1.05 | 1.03
10 | NCI-H2126 | 0.949 | 0.954 | 0.826 | 0.422 | 1.12 | 1.11 | 0.964 | 0.769 | 0.781 | 0.644 | 0.537 | 0.379 | 0.48 | 0.493 | 0.375 | 0.26 | 1.03 | 1.01 | 0.892 | 0.688
11 | BEN | 0.28 | 0.336 | 0.198 | 0.107 | 0.644 | 0.864 | 1.28 | 0.886 | 1.08 | 1.01 | 1.26 |  | 0.501 | 0.555 | 0.188 | 0.224 | 0.554 | 0.824 | 0.843 | 
12 | NCI-H3122 | 0.122 | 0.0841 | 0.051 | 0.0606 | 1.01 | 1.03 | 1.05 | 1.05 |  | 0.882 | 0.872 | 0.736 | 0.602 | 0.41 | 0.271 | 0.217 | 0.948 | 1.05 | 1 | 
